{"source": "paper PMC4853435", "about": "“A cell cycle kinase with tandem sensory PAS domains integrates cell fate cues” (Nature Communications, 2016)", "key": {"CckA 197–691 (ΔPAS-A)": {"biological_target": "T1, CckA 197–691 (ΔPAS-A) (Caulobacter vibrioides, UniProt A0A0H3C8Q4)", "T1 construct": "residues 197-691 (PAS-B, DHp, CA, RD), His-tagged, E. coli, Ni-NTA", "T1 sequence (A0A0H3C8Q4 197-691)": "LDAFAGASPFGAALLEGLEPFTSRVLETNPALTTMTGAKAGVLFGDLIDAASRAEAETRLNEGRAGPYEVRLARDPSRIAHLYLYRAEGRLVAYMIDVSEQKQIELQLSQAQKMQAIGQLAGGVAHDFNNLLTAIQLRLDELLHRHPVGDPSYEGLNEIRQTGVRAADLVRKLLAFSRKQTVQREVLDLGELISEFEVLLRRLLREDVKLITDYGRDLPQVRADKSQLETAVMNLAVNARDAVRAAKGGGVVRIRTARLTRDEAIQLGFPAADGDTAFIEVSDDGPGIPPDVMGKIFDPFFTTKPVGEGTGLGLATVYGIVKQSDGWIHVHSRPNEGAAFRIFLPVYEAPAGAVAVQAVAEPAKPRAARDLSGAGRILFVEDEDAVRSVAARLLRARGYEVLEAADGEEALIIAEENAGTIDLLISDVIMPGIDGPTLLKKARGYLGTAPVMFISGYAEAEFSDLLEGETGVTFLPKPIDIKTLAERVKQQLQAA", "assay": "autophosphorylation with [gamma-32P]ATP, nitrocellulose capture, phosphorimaging", "format": "biochemical"}, "CckA 70–544 (ΔRD)": {"biological_target": "T2, CckA 70–544 (ΔRD) (Caulobacter vibrioides, UniProt A0A0H3C8Q4)", "T2 construct": "residues 70-544 (PAS-A, PAS-B, DHp, CA), receiver domain removed, His-tagged, E. coli, Ni-NTA; immobilised on SPR chip", "T2 sequence (A0A0H3C8Q4 70-544)": "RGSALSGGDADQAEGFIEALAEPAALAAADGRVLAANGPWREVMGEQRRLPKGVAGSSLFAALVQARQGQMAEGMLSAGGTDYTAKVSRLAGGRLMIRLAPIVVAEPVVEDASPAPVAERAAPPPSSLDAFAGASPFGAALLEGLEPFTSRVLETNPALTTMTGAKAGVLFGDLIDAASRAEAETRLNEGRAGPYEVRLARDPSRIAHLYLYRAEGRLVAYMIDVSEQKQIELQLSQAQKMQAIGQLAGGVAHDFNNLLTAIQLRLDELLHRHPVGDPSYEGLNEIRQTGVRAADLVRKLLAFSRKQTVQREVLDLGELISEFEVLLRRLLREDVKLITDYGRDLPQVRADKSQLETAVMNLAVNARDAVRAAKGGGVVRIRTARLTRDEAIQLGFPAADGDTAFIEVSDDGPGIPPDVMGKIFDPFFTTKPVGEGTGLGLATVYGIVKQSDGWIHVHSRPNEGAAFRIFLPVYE", "assay": "SPR (Biacore T200, CckA variant amine-coupled to CM5 chip)", "format": "binding", "conditions": "50 mM HEPES pH 8, 200 mM KCl, 5 mM MgCl2, 25 °C"}, "CckA 70–691 (WT)": {"biological_target": "T3, CckA 70–691 (WT) (Caulobacter vibrioides, UniProt A0A0H3C8Q4)", "T3 construct": "cytosolic region 70-691 (PAS-A, PAS-B, DHp, CA, RD), transmembrane helices removed, N-terminal His6 tag, E. coli, Ni-NTA", "T3 sequence (A0A0H3C8Q4 70-691)": "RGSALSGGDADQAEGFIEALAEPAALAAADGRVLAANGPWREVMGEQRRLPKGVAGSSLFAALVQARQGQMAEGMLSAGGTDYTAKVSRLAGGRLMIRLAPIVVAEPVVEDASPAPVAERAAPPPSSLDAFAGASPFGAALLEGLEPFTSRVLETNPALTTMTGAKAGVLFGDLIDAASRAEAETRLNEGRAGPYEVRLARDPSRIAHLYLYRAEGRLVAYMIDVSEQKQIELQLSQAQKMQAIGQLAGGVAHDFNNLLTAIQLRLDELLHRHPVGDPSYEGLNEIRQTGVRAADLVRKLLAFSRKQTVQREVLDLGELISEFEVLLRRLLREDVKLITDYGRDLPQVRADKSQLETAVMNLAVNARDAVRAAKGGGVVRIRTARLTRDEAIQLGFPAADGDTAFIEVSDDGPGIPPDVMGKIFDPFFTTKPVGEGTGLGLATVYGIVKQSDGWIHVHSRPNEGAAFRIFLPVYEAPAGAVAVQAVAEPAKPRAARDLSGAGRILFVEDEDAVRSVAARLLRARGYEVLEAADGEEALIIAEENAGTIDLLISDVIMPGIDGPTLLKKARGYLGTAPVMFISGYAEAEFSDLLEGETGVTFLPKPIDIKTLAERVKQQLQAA", "assay": "autophosphorylation with [gamma-32P]ATP, nitrocellulose capture, phosphorimaging", "format": "biochemical"}, "[1]": {"biological_target": "T4, CckA 197–544 (ΔPAS-A-ΔRD) (Caulobacter vibrioides, UniProt A0A0H3C8Q4)", "T4 construct": "residues 197-544 (PAS-B, DHp, CA), His-tagged, E. coli, Ni-NTA; immobilised on SPR chip", "T4 sequence (A0A0H3C8Q4 197-544)": "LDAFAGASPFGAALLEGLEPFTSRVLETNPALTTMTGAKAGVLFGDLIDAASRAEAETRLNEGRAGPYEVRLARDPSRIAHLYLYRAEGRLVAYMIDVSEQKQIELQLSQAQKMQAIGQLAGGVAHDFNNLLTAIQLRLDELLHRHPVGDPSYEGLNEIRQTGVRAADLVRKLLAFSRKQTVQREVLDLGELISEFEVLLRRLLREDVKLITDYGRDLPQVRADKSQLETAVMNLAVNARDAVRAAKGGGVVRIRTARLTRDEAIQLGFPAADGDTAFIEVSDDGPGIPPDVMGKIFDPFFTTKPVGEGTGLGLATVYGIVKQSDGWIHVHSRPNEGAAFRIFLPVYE", "assay": "SPR (Biacore T200, CckA variant amine-coupled to CM5 chip)", "format": "binding", "conditions": "50 mM HEPES pH 8, 200 mM KCl, 5 mM MgCl2, 25 °C"}, "[2]": {"biological_target": "T5, CckA 70–295 (ΔDHp-ΔCA-ΔRD) (Caulobacter vibrioides, UniProt A0A0H3C8Q4)", "T5 construct": "residues 70-295 (PAS-A, PAS-B), pJAB41 in pET28b(+), His-tagged, E. coli, Ni-NTA; immobilised on SPR chip", "T5 sequence (A0A0H3C8Q4 70-295)": "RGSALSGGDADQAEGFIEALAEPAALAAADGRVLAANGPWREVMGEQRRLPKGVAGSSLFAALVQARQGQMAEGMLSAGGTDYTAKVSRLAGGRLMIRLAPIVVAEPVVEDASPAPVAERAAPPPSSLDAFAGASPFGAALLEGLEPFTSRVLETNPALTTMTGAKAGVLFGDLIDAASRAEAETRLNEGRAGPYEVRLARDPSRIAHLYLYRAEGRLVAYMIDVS", "assay": "SPR (Biacore T200, CckA variant amine-coupled to CM5 chip)", "format": "binding", "conditions": "50 mM HEPES pH 8, 200 mM KCl, 5 mM MgCl2, 25 °C"}, "CckA 70–378 (ΔCA-ΔRD)": {"biological_target": "T6, CckA 70–378 (ΔCA-ΔRD) (Caulobacter vibrioides, UniProt A0A0H3C8Q4)", "T6 construct": "residues 70-378 (PAS-A, PAS-B, DHp), His-tagged, E. coli, Ni-NTA; immobilised on SPR chip", "T6 sequence (A0A0H3C8Q4 70-378)": "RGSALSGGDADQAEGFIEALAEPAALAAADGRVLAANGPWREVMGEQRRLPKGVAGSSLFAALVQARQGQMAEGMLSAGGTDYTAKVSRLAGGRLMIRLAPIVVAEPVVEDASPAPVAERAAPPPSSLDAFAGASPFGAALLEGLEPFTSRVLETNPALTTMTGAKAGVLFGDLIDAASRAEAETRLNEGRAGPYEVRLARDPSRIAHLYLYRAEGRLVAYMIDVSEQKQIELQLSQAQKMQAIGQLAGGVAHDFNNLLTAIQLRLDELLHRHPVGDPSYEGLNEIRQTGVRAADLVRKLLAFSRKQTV", "assay": "SPR (Biacore T200, CckA variant amine-coupled to CM5 chip)", "format": "binding", "conditions": "50 mM HEPES pH 8, 200 mM KCl, 5 mM MgCl2, 25 °C"}}, "data": [{"smiles": "Nc1nc2c(ncn2[C@@H]2O[C@@H]3COP(=O)(O)O[C@H]4[C@@H](O)[C@H](n5cnc6c(=O)[nH]c(N)nc65)O[C@@H]4COP(=O)(O)O[C@H]3[C@H]2O)c(=O)[nH]1", "note": "[c-di-GMP]", "values": [{"measurement": "IC50", "setting": "CckA 197–691 (ΔPAS-A)", "value": 22, "unit": "µM"}, {"measurement": "SPR (Biacore T200, CckA variant amine-coupled to CM5 chip)", "setting": "CckA 70–544 (ΔRD)", "value": "The concentration-dependent response we observed demonstrates that c-di-GMP directly binds CckA"}, {"measurement": "IC50", "setting": "CckA 70–691 (WT)", "value": 27, "unit": "µM"}, {"measurement": "SPR (Biacore T200, CckA variant amine-coupled to CM5 chip)", "setting": "[1]", "value": "Each construct still displayed concentration dependence in response to c-di-GMP"}, {"measurement": "SPR (Biacore T200, CckA variant amine-coupled to CM5 chip)", "setting": "[2]", "value": "Each construct still displayed concentration dependence in response to c-di-GMP"}, {"measurement": "SPR (Biacore T200, CckA variant amine-coupled to CM5 chip)", "setting": "CckA 70–378 (ΔCA-ΔRD)", "value": "removal of the ATP-binding CA domain resulted in a minor reduction in c-di-GMP binding"}]}]}
